In brackets after ≈: the same amount, converted by molar mass. Activity calls are given as the source filed them. The rule behind the calls is not given here.
Columns and labels:
[1] = system: Mycobacterium tuberculosis; test: Antimycobacterial activity against Mycobacterium tuberculosis H37Rv assessed as inhibition of visible growth […]; assay type: functional
[2] = Selectivity index, ratio of MIC99 for Mycobacterium tuberculosis H37Rv to IC50 for human THP-1 cells; assay type: functional
[3] = system: THP-1; test: Cytotoxicity against human THP-1 cells assessed as cell viability measured after 96 hrs by MTT assay; assay type: cell-based; conditions: THP-1, 96 h
[4] = system: Bacillus subtilis; test: Antibacterial activity against Bacillus subtilis assessed as inhibition of bacterial growth; assay type: functional
[5] = system: Staphylococcus aureus; test: Antibacterial activity against Staphylococcus aureus assessed as inhibition of bacterial growth; assay type: functional
[6] = system: Bacillus subtilis; test: Antibacterial activity against Bacillus subtilis assessed as inhibition of bacterial growth at 100 to 200 uM; assay type: functional; conditions: dose 100-200 µM
[7] = system: Staphylococcus aureus; test: Antibacterial activity against Staphylococcus aureus assessed as inhibition of bacterial growth at 100 to 200 uM; assay type: functional; conditions: dose 100-200 µM
[8] = system: FMN riboswitch; test: Binding affinity to Lactobacillus plantarum NCDO 1752 FMN riboswitch at 150 nM measured by fluorescence assay; assay type: nucleic-acid assay; conditions: Lactiplantibacillus plantarum

Structure (SMILES) | MIC99 [1] [µM] | Selectivity Index [2] | IC50 [3] [µM] | MIC [4] [µM] | MIC [5] [µM] | inhibition (INH) [6] [%] | inhibition (INH) [7] [%] | inhibition [4] | inhibition [5] | Kb [8]
CC(=O)OC[C@H](OC(C)=O)[C@H](OC(C)=O)[C@@H](Cn1c2nc(=O)n(C)c(=O)c-2nc2cc(C)c(C)cc21)OC(C)=O | 12.5 (≈ 6.98 µg/mL) | >2 | > 100 | – | – | – | – | – | – | –
CCCCCCCCCCCC(=O)OC[C@H](OC(=O)CCCCCCCCCCC)[C@H](OC(=O)CCCCCCCCCCC)[C@@H](Cn1c2nc(=O)[nH]c(=O)c-2nc2cc(C)c(C)cc21)OC(=O)CCCCCCCCCCC | > 50 | 1 | > 50 | 100 (≈ 111 µg/mL) | 100 (≈ 111 µg/mL) | – | – | – | – | –
CCCCCC(=O)OC[C@H](OC(=O)CCCCC)[C@H](OC(=O)CCCCC)[C@H](O)Cn1c2nc(=O)[nH]c(=O)c-2nc2cc(C)c(C)cc21 | 25 (≈ 16.8 µg/mL) | >4 | > 100 | – | – | – | – | – | – | –
CCCC(=O)OC[C@H](OC(=O)CCC)[C@H](O)[C@H](O)Cn1c2nc(=O)[nH]c(=O)c-2nc2cc(C)c(C)cc21 | 25 (≈ 12.9 µg/mL) | >4 | > 100 | – | – | >90 | >90 | – | – | –
CCCC(=O)OC[C@H](OC(=O)CCC)[C@H](OC(=O)CCC)[C@H](O)Cn1c2nc(=O)[nH]c(=O)c-2nc2cc(C)c(C)cc21 | 50 (≈ 29.3 µg/mL) | >2 | > 100 | – | – | >90 | >90 | – | – | –
Cc1cc2nc3c(=O)[nH]c(=O)nc-3n(CCO)c2cc1C | > 50 | 1 | > 50 | – | – | – | – | – | – | –
CCCC(=O)OC[C@H](OC(=O)CCC)[C@H](OC(=O)CCC)[C@@H](Cn1c2nc(=O)[nH]c(=O)c-2nc2cc(C)c(C)cc21)OC(=O)CCC | 50 (≈ 32.8 µg/mL) | 2 | 100 | – | – | >90 | >90 | – | – | –
CCCCCCCCCCCC(=O)OC[C@H](OC(=O)CCCCCCCCCCC)[C@H](OC(=O)CCCCCCCCCCC)[C@H](O)Cn1c2nc(=O)[nH]c(=O)c-2nc2cc(C)c(C)cc21 | > 50 | 1 | 50 | – | – | – | – | Active | Active | –
CCCCCCCCCCCC(=O)OC[C@H](O)[C@H](O)[C@H](O)Cn1c2nc(=O)[nH]c(=O)c-2nc2cc(C)c(C)cc21 | > 50 | 1 | 50 | – | – | – | – | – | – | –
CC(=O)OC[C@H](OC(C)=O)[C@H](OC(C)=O)[C@@H](Cn1c2nc(=O)[nH]c(=O)c-2nc2cc(C)c(C)cc21)OC(C)=O | 25 (≈ 13.6 µg/mL) | 1 | 25 | – | – | – | – | – | – | –
Cc1cc2nc3c(=O)[nH]c(=O)nc-3n(CC(O)O)c2cc1C | 6.25 (≈ 1.89 µg/mL) | >10.7 | > 100 | – | – | – | – | – | – | 5.42 10^5/M
CCCCCCCCCCCC(=O)OC[C@H](OC(=O)CCCCCCCCCCC)[C@H](O)[C@H](O)Cn1c2nc(=O)[nH]c(=O)c-2nc2cc(C)c(C)cc21 | > 50 | <0.5 | 25 | – | – | – | – | – | – | –
NNC(=O)c1ccncc1 [ISONIAZID] | 0.78 (≈ 0.107 µg/mL) | – | 100 | – | – | – | – | – | – | –
CCCCCC(=O)OC[C@H](OC(=O)CCCCC)[C@H](OC(=O)CCCCC)[C@@H](Cn1c2nc(=O)[nH]c(=O)c-2nc2cc(C)c(C)cc21)OC(=O)CCCCC | 50 (≈ 38.4 µg/mL) | >1 | > 50 | – | – | – | – | – | – | –
